According to US20240002388A1, “PYRIMIDINONE COMPOUNDS AND USES THEREOF” (HUTCHISON MEDIPHARMA LIMITED, priority 2020, published 2024):

tested on: U937 cell line (human histiocytic lymphoma cell line); experiment: U937 cell viability assay (TNF-α + Z-VAD-FMK induced necroptosis); type: cell-based; details: Homo sapiens, U-937; U937 cells, hTNF-α 0.1 μg/mL + Z-VAD-FMK 50 μM, 20 hours, CellTiter-Glo
Protocol: U937 cell line (human histiocytic lymphoma cell line): purchased from ATCC (American Type Culture Collection) Cell Bank, cultured in a 5% CO2, 37° C. incubator, and RPMI 1640 medium which contains L-glutamine, 1.5 g/L sodium bicarbonate, 2.383 g/L HEPES solution, 0.11 g/L sodium pyruvate and 4.5 g/L glucose, plus 10% fetal bovine serum (FBS) was used. • RPMI 1640 medium: GIBCO, Cat #A10491-01; • Fetal bovine serum (FBS): GIBCO, Cat #10099-141C; • Dimethyl sulfoxide (DMSO): Sigma, Cat #D2650; • Recombinant Human TNF-alpha Protein (hTNF-α): R&D system, Cat #210-TA-100; • Pan-Caspase inhibitor (Z-VAD-FMK): Selleckchem, Cat #S7023; • CellTiter-Glo 2.0 Cell Viability Assay kit: Promega, Cat #G9242; • Microwell plate reader: Envision, Perkin Elmer; • 96-well plate: Corning, Cat #3917.
The U937 cells at the logarithmic phase were taken out, centrifuged to remove the medium, washed with PRMI 1640 medium containing 1% FBS, and diluted with 1% FBS-containing RPMI 1640 medium to 2.5×10^5 cells/ml, inoculated at 70 μL/well into a 96-well plate, i.e., 1.75×10^4 cells/well. The plate was cultured in a 5% CO2, 37° C. cell incubator. After incubating for 1 hour, the test compound was diluted to the corresponding concentrations using DMSO with 3-fold serial dilution, then the corresponding concentration of DMSO diluted solution was diluted into 1% FBS-containing RPMI 1640 medium, and 10 μL/well of the diluted test compound with different concentrations (final concentration of test compound was 1.0, 0.333, 0.111, 0.037, 0.012, 0.004, 0.0014 and 0.0005 μM, while final concentration of DMSO was 0.3%) or 10 μL/well control solution (3% DMSO) were added to the cell culture system respectively, with the total volume being 80 μL/well; Then 10 μL of Z-VAD-FMK solution diluted with 1% FBS-containing RPMI 1640 medium (final concentration of 50 μM) or 10 μL of control solution (2.5% DMSO) was added to each well, with the total volume being 90 μL/well. The plate was incubated in a 5% CO2, 37° C. cell culture incubator for 1 hour.
After being cultured for 1 hour, 10 μL of human recombinant TNF-α protein diluted with 1% FBS-containing RPMI 1640 medium (final concentration of 0.1 μg/mL) or 10 μL/well control solution (1% FBS-containing RPMI 1640 medium) was added to each well. The plate was incubated in a 5% CO2, 37° C. cell culture incubator for 20 hours.
The cell culture plate was taken out from the incubator, and left to stand at room temperature for 30 minutes. Meanwhile, CellTiter-Glo viability assay kit was put from freezer to room temperature, and 50 μL of CellTiter-Glo reagent was added to all wells, the plate was shaken for 1 minutes, protected from light at room temperature for 10 minutes then read the plate on Envision to get the luminescence signal.
The 96-well plate in the dark was taken out, and the chemiluminescence was determined using the Envision microwell plate reader as the signal value of each well.
The mean signal value of the wells of the mixed solution of recombinant human TNF-alpha protein (final concentration of 0.1 μg/mL) and Pan-Caspase inhibitor (final concentration of 50 μM) was used as the lower value, and the mean signal value of the wells without stimulation was used as the upper value. According to the signal value of each well, the inhibition rate of each concentration of every compound was calculated, and the IC50 value of compound was obtained by Model 205 in XL-Fit 5.3 software (ID Business Solutions Limited).
Inhibition rate %=[(Luminescence readout of treated compound−Luminescence readout of positive control)/(Luminescence readout of negative control−Luminescence readout of positive control)]×100%, wherein

Row | SMILES | IC50 [nM]
1 | CC(C)n1ncc2cnc(C(=O)NC3(c4ccc(-c5cncn([C@@H](C)C6CC6)c5=O)cc4)CC3)nc21 [Compound 85, (S)—N-(1-(4-(1-(1-cyclopropylethyl)-6-oxo-1,6-dihydropyrimidin-5-yl)phenyl)cyclopropyl)-1-i-propyl-1H-pyrazolo[3,4-d]pyrimidine-6-carboxamide] | 2
2 | Cn1cncc(-c2ccc(C3(NC(=O)c4cc(Cc5ccccc5)on4)CC3)cc2)c1=O [Compound 5] | 24
3 | CC(C)n1cncc(-c2ccc(C3(NC(=O)c4ncc5cnn(CC6CC6)c5n4)CC3)cc2F)c1=O [Compound 73] | 2
4 | CC(C)n1ncc2cnc(C(=O)NC3(c4ccc(-c5cncn(C6CCC6)c5=O)cc4)CC3)nc21 [Compound 42] | 7
5 | CC(C)n1cncc(-c2ccc(C3(NC(=O)c4ncc5cnn(C(C)C)c5n4)CC3)cc2F)c1=O [Compound 35] | 11
6 | CC(C)n1cncc(-c2ccc(C3(NC(=O)c4ncc5cnn(-c6ccccn6)c5n4)CC3)cc2)c1=O [Compound 63] | 51
7 | C[C@H](c1ccccc1)n1cnc(C(=O)NC2(c3ccc(-c4cncn(C)c4=O)cc3)CC2)n1 [Compound 55, (R)—N-(1-(4-(1-methyl-6-oxo-1,6-dihydropyrimidin-5-yl)phenyl)cyclopropyl)-1-(1-phenylethyl)-1H-1,2,4-triazole-3-carboxamide] | 7
8 | Cn1cncc(-c2ccc(C3(NC(=O)c4ncn(Cc5ccccc5)n4)CC3)cc2)c1=O [Compound 8] | 14
9 | CC(C)n1ncc2cnc(C(=O)NC3(c4ccc(-c5cncn(C)c5=O)cn4)CC3)nc21 [Compound 2] | 170
10 | CCn1cncc(-c2ccc(C3(NC(=O)c4ncc5cnn(C(C)C)c5n4)CC3)cc2)c1=O [Compound 37] | 14
11 | CC(C)n1ncc2cnc(C(=O)NC3(c4ccc(-c5cncn([C@@H](C)C(F)(F)F)c5=O)cc4F)CC3)nc21 (stereo in doubt) [Compound 47] | 2
12 | CC[C@H](C)n1cncc(-c2ccc(C3(NC(=O)c4ncc5cnn(C(C)C)c5n4)CC3)cc2)c1=O [Compound 43] | 2
13 | CC(C)n1cncc(-c2ccc(C3(NC(=O)c4ncc5cnn([C@H](C)C6CC6)c5n4)CC3)cc2)c1=O [Compound 89, (R)-1-(1-cyclopropylethyl)-N-(1-(4-(1-i-propyl-6-oxo-1,6-dihydropyrimidin-5-yl)phenyl)cyclopropyl)-1H-pyrazolo[3,4-d]pyrimidine-6-carboxamide] | 5
14 | C[C@@H](n1cncc(-c2ccc(C3(NC(=O)c4ncc5cnn(CC6CC6)c5n4)CC3)cc2)c1=O)C(F)(F)F [Compound 70] | 2
15 | CC(C)n1ncc2cnc(C(=O)NC3(c4ccc(-c5cncn(C6CCOC6)c5=O)cc4)CC3)nc21 (stereo in doubt) [Compound 81, (S)-1-i-propyl-N-(1-(4-(6-oxo-1-(tetrahydrofuran-3-yl)-1,6-dihydropyrimidin-5-yl)phenyl)cyclopropyl)-1H-pyrazolo[3,4-d]pyrimidine-6-carboxamide] | 8
16 | CC(C)n1ncc2cnc(C(=O)NC3(c4ccc(-c5cncn(CC6CC6)c5=O)c(F)c4F)CC3)nc21 [Compound 95] | 3
17 | CC(C)n1ncc2cnc(C(=O)NC3(c4ccc(-c5cncn(CC6CCC6)c5=O)cc4)CC3)nc21 [Compound 66] | 3

Row | SMILES | IC50 [nM]
18 | CC(C)n1ncc2cnc(C(=O)NC3(c4ccc(-c5cncn(C6CC(F)(F)C6)c5=O)cc4)CC3)nc21 [Compound 65] | 7
19 | CC(C)n1ncc2cnc(C(=O)NC3(c4ccc(-c5cncn(C6(C)CC6)c5=O)cc4)CC3)nc21 [Compound 78] | 8
20 | CC(C)n1cncc(-c2cc(F)c(C3(NC(=O)c4ncc5cnn(C(C)C)c5n4)CC3)c(F)c2)c1=O [Compound 92] | 100
21 | CC(C#N)n1cncc(-c2ccc(C3(NC(=O)c4ncc5cnn(C(C)C)c5n4)CC3)cc2)c1=O (stereo in doubt) [Compound 83, (S)—N-(1-(4-(1-(1-cyanoethyl)-6-oxo-1,6-dihydropyrimidin-5-yl)phenyl)cyclopropyl)-1-i-propyl-1H-pyrazolo[3,4-d]pyrimidine-6-carboxamide] | 17
22 | CC(C)n1cncc(-c2ccc(C3(NC(=O)c4nc5n(n4)[C@H](c4ccccc4)CC5)CC3)cc2)c1=O [Compound 16] | 2
23 | CC(C)n1cncc(-c2ccc(C3(NC(=O)c4ncc5cnn(CC6CC6)c5n4)CC3)c(F)c2)c1=O [Compound 72] | 2
24 | CC(C)n1cncc(-c2ccc(C3(NC(=O)c4ncc5cnn(CC6CC6)c5n4)CC3)cc2)c1=O [Compound 61] | 3
25 | CC(C)n1ncc2cnc(C(=O)NC3(c4ccc(-c5cncn(C)c5=O)c(F)c4)CC3)nc21 [Compound 23, N-(1-(3-fluoro-4-(1-methyl-6-oxo-1,6-dihydropyrimidin-5-yl)phenyl)cyclopropyl)-1-isopropyl-1H-pyrazolo[3,4-d]pyrimidine-6-carboxamide] | 57
26 | CC(C)n1ncc2cnc(C(=O)NC3(c4ccc(-c5cncn(C6CCOCC6)c5=O)cc4)CC3)nc21 [Compound 77] | 10
27 | CC(C)n1ncc2cnc(C(=O)NC3(c4ccc(-c5cncn(C6CCOC6)c5=O)cc4)CC3)nc21 (stereo in doubt) [Compound 80, (R)-1-i-propyl-N-(1-(4-(6-oxo-1-(tetrahydrofuran-3-yl)-1,6-dihydropyrimidin-5-yl)phenyl)cyclopropyl)-1H-pyrazolo[3,4-d]pyrimidine-6-carboxamide] | 9
28 | C[C@H](n1cncc(-c2ccc(C3(NC(=O)c4ncc5cnn(CC6CC6)c5n4)CC3)cc2)c1=O)C(F)(F)F [Compound 68] | 6
29 | CC(C)n1ncc2cnc(C(=O)NC3(c4ccc(-c5cncn(CC6CC6)c5=O)cc4)CC3)nc21 [Compound 36] | 3
30 | CC(C)n1cncc(-c2ccc(C3(NC(=O)c4ncc5cnn(C(C)C)c5n4)CC3)c(F)c2Cl)c1=O [Compound 91] | 11
31 | CC(C)n1cncc(-c2ccc(C3(NC(=O)c4ncn(Cc5ccccc5)n4)CC3)cc2)c1=O [Compound 17] | 1
32 | CC(C)n1ncc2cnc(C(=O)NC3(c4ccc(-c5cncn(C)c5=O)cc4)CC3)cc21 [Compound 28, 1-isopropyl-N-(1-(4-(1-methyl-6-oxo-1,6-dihydropyrimidin-5-yl)phenyl)cyclopropyl)-1H-pyrazolo[4,3-c]pyridine-6-carboxamide] | 135
33 | CC(C)n1ncc2cnc(C(=O)NC3(c4ccc(-c5cncn(C)c5=O)c(Cl)c4)CC3)nc21 [Compound 25] | 32
34 | CC(C)n1cncc(-c2ccc(C3(NC(=O)c4ncc5cnn(C(C)C6CC6)c5n4)CC3)cc2)c1=O (racemic) [Compound 59, 1-(1-cyclopropylethyl)-N-(1-(4-(1-i-propyl-6-oxo-1,6-dihydropyrimidin-5-yl)phenyl)cyclopropyl)-1H-pyrazolo[3,4-d]pyrimidine-6-carboxamide] | 3

same assay, conditions: U937 cells, hTNF-α 0.1 μg/mL + Z-VAD-FMK 50 μM, 20 hours, CellTiter-Glo

Row | SMILES | IC50 [nM]
35 | CC(C)n1ncc2cnc(C(=O)NC3(c4ccc(-c5cncn([C@H]6C[C@@H](F)C6)c5=O)cc4)CC3)nc21 [Compound 88, N-(1-(4-(1-(cis-3-fluorocyclobutyl)-6-oxo-1,6-dihydropyrimidin-5-yl)phenyl)cyclopropyl)-1-i-propyl-1H-pyrazolo[3,4-d]pyrimidine-6-carboxamide] | 11
